Test results from patent publication US10676461B2, “Heterocyclic compound” (TAKEDA PHARMACEUTICAL COMPANY LIMITED, priority 2016, dated 2020).

System: sphingomyelin in the cerebral cortex
Test: Efficacy evaluation test using sphingomyelin accumulation model mouse (Niemann-Pick disease type A and type B model)
Format: in vivo, mouse (C57BL/6J Jcl)
Conditions: for Amount of sphingomyelin per wet weight of cerebral cortex: twice daily, 2 wk, imipramine hydrochloride 40 mg/kg i.p. once daily, 4 wk, male mouse, Mean ± S.D., N = 7-8
Excerpt: Test Example 4 Efficacy Evaluation Test Using Sphingomyelin Accumulation Model Mouse as Niemann-Pick Disease Type A and Type B Model
A phase 1b clinical trial on Niemann-Pick disease type B which develops by abnormality in acid sphingomyelinase has reported that the administration of recombinant acid sphingomyelinase (olipudase alfa) decreased sphingomyelin accumulated in a peripheral organ such as the liver, and this led to the amelioration of the pathological condition (Am J Surg Pathol. 2016; 40: 1232).
Also, the intraperitoneal administration of an acid sphingomyelinase inhibitor, imipramine hydrochloride, to a mouse increases its enzyme substrate, sphingomyelin, not only in a peripheral organ such as the liver but in the central nervous system such as the cerebrum, and the mouse obtained by such administration is recognized as an animal model that can induce sphingomyelin accumulation, as in human Niemann-Pick disease type A and type B, in each tissue (Gen Physiol Biophys 2016; 35: 195).
Accordingly, the compound of the present invention was evaluated as a SPT inhibitor for its sphingomyelin-lowering effect on Niemann-Pick disease type B, and Niemann-Pick disease type A, which also accumulates sphingomyelin in the central nervous system such as the cerebral cortex, by the following method. Imipramine hydrochloride (Wako Pure Chemical Industries, Ltd.) was dissolved at a concentration of 2 mg/mL in saline and intraperitoneally administered at a dose of 40 mg/kg to each 6-week-old male C57BL/6J Jcl mouse (CLEA Japan, Inc.) for 2 weeks once daily. […] In this operation, the intraperitoneal administration of imipramine hydrochloride was also carried out once daily concurrently therewith. After the completion of the administration of the SPT inhibitor, the cerebrum was excised from the mouse cranium and separated into the cortex and the medulla. The cortical portion was rapidly frozen in liquid nitrogen and then disrupted using ShakeMaster Auto (Bio-Medical Science Co., Ltd.) under freezing. 2-Propanol (containing 0.002% of BHT (dibutylhydroxytoluene as a fat and oil antioxidant) was added thereto in an amount of 9 mL/g of wet weight, and lipids in the cerebral cortex were extracted by suspension using ShakeMaster Auto again. The concentration of sphingomyelin contained in the 2-propanol was measured using a sphingomyelin assay kit (Abcam, Inc., ab138877) based on the fluorescence quantification method. EnVision 2102 Multilabel Reader (PerkinElmer Inc.) was used in fluorescence measurement.
From this, it was able to be confirmed that a model mimicking Niemann-Pick disease type A and type B which accumulate sphingomyelin in the cerebral cortex was established by the intraperitoneal administration of imipramine hydrochloride for 4 weeks.

## Cn1nc(C(=O)N[C@@H]2CCN(C(=O)c3cc(Cl)c4nccnc4c3)C[C@@H]2c2ccc(F)cc2)cc1C(F)(F)F [Example 1, N-((3S,4R)-1-((8-Chloroquinoxalin-6-yl)carbonyl)-3-(4-fluorophenyl)piperidin-4-yl)-1-methyl-5-(trifluoromethyl)-1H-pyrazole-3-carboxamide]
Group 3: 0.3 mg/kg oral
  Amount of sphingomyelin per wet weight of cerebral cortex: 3.282 ± 0.260 µg/g
Group 4: 1.0 mg/kg oral
  Amount of sphingomyelin per wet weight of cerebral cortex: 2.972 ± 0.635 µg/g
Group 5: 3.0 mg/kg oral
  Amount of sphingomyelin per wet weight of cerebral cortex: 2.952 ± 0.219 µg/g
oral, 2 weeks twice daily, single dose 0.3, 1.0 and 3.0 mg/kg, imipramine model mouse, p<0.025, one-tailed Williams' test
  effect of suppressing sphingomyelin accumulation in the cerebral cortex: dose-dependent significant effect of suppressing sphingomyelin accumulation in the cerebral cortex
